Source: publication PMC6952396, “Structural basis for itraconazole-mediated NPC1 inhibition” (Nature Communications, 2020)

Tests used:
[1] = tested on: NPC1-mediated cholesterol export; settings: cited from earlier work
NPC1 [2] = biological target: T1, NPC1 (Cricetulus griseus, UniProt Q9JLG3); settings: cultured cells; cited from earlier work
T1 construct: CHO-7 cells in the medium are deprived of cholesterol to induce the LDL receptors biosynthesis; endogenous in cells; host or cells: CHO-7 cells
T1 sequence (Q9JLG3 23-1277): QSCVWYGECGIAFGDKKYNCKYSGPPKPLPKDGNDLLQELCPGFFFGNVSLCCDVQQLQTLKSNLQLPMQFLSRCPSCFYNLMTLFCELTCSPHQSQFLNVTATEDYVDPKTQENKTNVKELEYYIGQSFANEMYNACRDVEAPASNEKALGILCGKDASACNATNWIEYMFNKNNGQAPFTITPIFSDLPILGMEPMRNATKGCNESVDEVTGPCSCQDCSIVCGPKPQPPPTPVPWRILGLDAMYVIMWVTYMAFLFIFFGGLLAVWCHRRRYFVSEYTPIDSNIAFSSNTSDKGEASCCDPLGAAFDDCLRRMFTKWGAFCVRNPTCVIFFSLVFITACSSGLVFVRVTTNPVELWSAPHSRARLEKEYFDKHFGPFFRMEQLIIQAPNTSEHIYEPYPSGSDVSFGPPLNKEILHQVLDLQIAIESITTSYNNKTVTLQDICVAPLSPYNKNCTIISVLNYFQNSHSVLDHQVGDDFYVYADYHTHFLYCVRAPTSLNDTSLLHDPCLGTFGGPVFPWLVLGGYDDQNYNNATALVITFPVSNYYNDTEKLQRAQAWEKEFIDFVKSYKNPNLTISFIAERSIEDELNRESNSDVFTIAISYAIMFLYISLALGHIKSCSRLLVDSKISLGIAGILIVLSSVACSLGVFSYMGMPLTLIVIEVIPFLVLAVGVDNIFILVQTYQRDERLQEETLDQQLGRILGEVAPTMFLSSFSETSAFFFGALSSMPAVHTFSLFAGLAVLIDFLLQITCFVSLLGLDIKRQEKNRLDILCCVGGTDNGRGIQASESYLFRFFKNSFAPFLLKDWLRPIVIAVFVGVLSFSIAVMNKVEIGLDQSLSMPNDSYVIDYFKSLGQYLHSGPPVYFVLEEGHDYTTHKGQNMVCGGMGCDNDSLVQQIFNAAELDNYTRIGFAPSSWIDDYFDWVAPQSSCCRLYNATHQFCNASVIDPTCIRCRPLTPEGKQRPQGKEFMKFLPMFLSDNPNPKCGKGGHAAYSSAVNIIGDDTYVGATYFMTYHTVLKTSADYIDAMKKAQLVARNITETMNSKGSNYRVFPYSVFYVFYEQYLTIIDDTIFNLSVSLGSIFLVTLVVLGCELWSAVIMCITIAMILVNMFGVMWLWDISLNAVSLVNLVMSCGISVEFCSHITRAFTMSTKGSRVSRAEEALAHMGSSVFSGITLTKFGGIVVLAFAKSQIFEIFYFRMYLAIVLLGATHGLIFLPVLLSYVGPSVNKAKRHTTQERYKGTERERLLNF

NPC1 [3] = biological target: T1, NPC1; experiment: Cholesterol re-esterification (ACAT) assay measuring NPC1-mediated export of cholesterol from lysosomes in CHO-7 cells; type: cell-based; settings: for cholesteryl [14C] oleate formed, Repeat 1 / cholesteryl [14C] oleate formed, Repeat 2: Fig. 2 source data; for cholesteryl [14C] oleate formed, Repeat 3 / cholesteryl [14C] oleate formed, Repeat 4: Supplementary Fig. 3 source data
Description: Itraconazole has three chiral centers (Supplementary Fig. 2a). The pharmaceutical form contains four cis-stereoisomers in a 1:1:1:1 molar ratio (Supplementary Fig. 2a–d). To determine the activity of the cis-stereoisomers, the individual isomers were isolated and identified based on their optical rotation in chloroform following a previous report (Supplementary Fig. 2e)[26]. Then, they were separately tested in a cholesterol re-esterification assay used to measure NPC1-mediated export of cholesterol from lysosomes. Briefly, CHO-7 cells in the medium are deprived of cholesterol to induce the LDL receptors biosynthesis. The cells are then incubated with fetal calf serum (FCS) that contains LDL. The LDL-derived cholesterol will now be transported by functional NPC1 protein from the lysosome to the endoplasmic reticulum (ER). The acyl-CoA:cholesterol actyltransferase named ACAT can now re-esterify the cholesterol in the ER. Therefore, the cells were pulse-labeled with [^14C] oleate and we can measure the synthesis of cholesteroyl [^14C] oleate to evaluate the activity of NPC1 protein. Using this assay, we tested the ability of various itraconazole to inhibit NPC1 activity.
Fig. 2 ACAT activity of itraconazole and ketoconazole in CHO-7 cells. On day 0, CHO-7 cells were set up in medium A with 5% LPDS at 2.5 × 10^5 cells/well in 6-well dish. On day 2, cells were switched to medium A with 5% LPDS containing 50 µM sodium compactin and 50 µM sodium mevalonate. On day 3 the cells received fresh medium B containing compactin and mevalonate with various concentration compounds in the presence of 10% FCS containing lipoproteins. After incubation for 4 h at 37 °C, each cell monolayer was pulse-labeled for 2 h with 0.1 mM sodium [^14C] oleate (5792 dpm/nmol). The cells were then harvested for measurement of their content of cholesteryl [^14C] oleate and [^14C] triglycerides, as described in Methods. […] Itraconazole mixture, isomer A (Supplementary Fig. 2a), isomer B (Supplementary Fig. 2b) and isomer C (Supplementary Fig. 2c) were added at final concentrations of 0.3 μM. The isomer D (Supplementary Fig. 2d), I-Br and ketoconazole were added at final concentrations of 1 μM. The biological repeats are shown as individual values. Source data are provided as a Source Data file.
On day 0, cells were set up in medium A with 5% LPDS at 2.5 × 10^5 cells/well in six-well dish. On day 2, cells were switched to medium A with 5% LPDS containing 50 µM sodium compactin and 50 µM sodium mevalonate. On day 3 the cells received fresh medium B containing compactin and mevalonate with indicated concentration triazole compounds in the presence of 10% FCS containing lipoproteins. After incubation for 4 h at 37 °C, each cell monolayer was pulse-labeled for 2 h with 0.1 mM sodium [^14C] oleate (5792 dpm/nmol). The cells were then harvested for measurement of their content of cholesteryl [^14C] oleate and [^14C] triglycerides.
The rate of incorporation of [^14C] oleate into cholesteryl [^14C] oleate and [^14C] triglycerides by monolayers of NPC1^−/− cells and CHO-7 cells was measured as described previously. In brief, cells were switched to medium containing LPDS supplemented with compactin and mevolonate at 16 h before the experiments. On the day of the experiment, cells were incubated for 4 h with fresh medium containing FCS as a source of cholesterol-containing lipoproteins. Cells were then pulse –labeled for 2 h with 0.1 mM sodium [^14C] oleate. Cells were then washed, and the lipids were extracted in hexane:isopropanol (3:2, vol:vol), separated on a silica gel G thin-layer chromatogram (developed in heptane:ethylether:acetic acid, 90:30:1), and quantified by scintillation counting with the use of an internal standard for recovery.

SMILES: CCN(CC)CCO[C@H]1CC[C@@]2(C)C(=CC[C@@H]3[C@@H]2CC[C@]2(C)C(=O)CC[C@@H]32)C1 [U18666A]
- inhibition of cholesterol export from lysosomes [1]: inhibit cholesterol export from lysosomes
- inhibition of P-X cross-linking to NPC1 (NPC1 [2]): inhibited

SMILES: CCC(C)n1ncn(-c2ccc(N3CCN(c4ccc(OCC5COC(Cn6cncn6)(c6ccc(Cl)cc6Cl)O5)cc4)CC3)cc2)c1=O (centres unmarked) [Itra-A]
- cholesteryl [14C] oleate formed, Repeat 1 (NPC1 [3]; 0.01 uM compound): 3.345 nanomoles formed per hour per milligram cell protein
- cholesteryl [14C] oleate formed, Repeat 2 (NPC1 [3]; 0.01 uM compound): 3.639 nanomoles formed per hour per milligram cell protein
- cholesteryl [14C] oleate formed, Repeat 3 (NPC1 [3]; 0.01 uM compound): 4.944 nanomoles formed per hour per milligram cell protein
- cholesteryl [14C] oleate formed, Repeat 4 (NPC1 [3]; 0.01 uM compound): 4.771 nanomoles formed per hour per milligram cell protein
- cholesteryl [14C] oleate formed, Repeat 1 (NPC1 [3]; 0.03 uM compound): 2.117 nanomoles formed per hour per milligram cell protein
- cholesteryl [14C] oleate formed, Repeat 2 (NPC1 [3]; 0.03 uM compound): 3.138 nanomoles formed per hour per milligram cell protein
- cholesteryl [14C] oleate formed, Repeat 3 (NPC1 [3]; 0.03 uM compound): 2.06 nanomoles formed per hour per milligram cell protein
- cholesteryl [14C] oleate formed, Repeat 4 (NPC1 [3]; 0.03 uM compound): 3.899 nanomoles formed per hour per milligram cell protein
- cholesteryl [14C] oleate formed, Repeat 1 (NPC1 [3]; 0.06 uM compound): 1.347 nanomoles formed per hour per milligram cell protein
- cholesteryl [14C] oleate formed, Repeat 2 (NPC1 [3]; 0.06 uM compound): 1.367 nanomoles formed per hour per milligram cell protein
- cholesteryl [14C] oleate formed, Repeat 3 (NPC1 [3]; 0.06 uM compound): 2.476 nanomoles formed per hour per milligram cell protein
- cholesteryl [14C] oleate formed, Repeat 4 (NPC1 [3]; 0.06 uM compound): 3.208 nanomoles formed per hour per milligram cell protein
- cholesteryl [14C] oleate formed, Repeat 1 (NPC1 [3]; 0.1 uM compound): 0.6494 nanomoles formed per hour per milligram cell protein
- cholesteryl [14C] oleate formed, Repeat 2 (NPC1 [3]; 0.1 uM compound): 0.4243 nanomoles formed per hour per milligram cell protein
- cholesteryl [14C] oleate formed, Repeat 3 (NPC1 [3]; 0.1 uM compound): 0.5346 nanomoles formed per hour per milligram cell protein
- cholesteryl [14C] oleate formed, Repeat 4 (NPC1 [3]; 0.1 uM compound): 0.7537 nanomoles formed per hour per milligram cell protein
- cholesteryl [14C] oleate formed, Repeat 1 (NPC1 [3]; 0.3 uM compound): 0.1828 nanomoles formed per hour per milligram cell protein
- cholesteryl [14C] oleate formed, Repeat 2 (NPC1 [3]; 0.3 uM compound): 0.9513 nanomoles formed per hour per milligram cell protein
- cholesteryl [14C] oleate formed, Repeat 3 (NPC1 [3]; 0.3 uM compound): 0.009558 nanomoles formed per hour per milligram cell protein
- cholesteryl [14C] oleate formed, Repeat 4 (NPC1 [3]; 0.3 uM compound): 0.01486 nanomoles formed per hour per milligram cell protein
- IC50 (NPC1 [3]; read-out: IC50 (concentration at which each compound inhibited cholesterol esterification by 50%), 10% FCS, 4 h then 2 h [14C] oleate pulse): 20 nM
